From patent US20250179061A1 (SIRONAX LTD., priority 2022, published 2025)

System: HT-29 cells
Experiment: HT-29 necroptosis cell viability assay (TNF-α/SMAC mimetic/zVAD-FMK, CellTiter-Glo)
Type: cell-based
Conditions: Homo sapiens, HT-29, HT-29 necroptosis cell viability, IC50 class symbols; read-out: Activity
Summary of the method: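 Necroptosis was triggered by TNF-α (10 ng/ml), SMAC mimetic (6 μM) and zVAD-FMK (10 μM) in serum-free medium during 20 h compound exposure (10 concentrations, threefold steps) of HT-29 cells. IC50 from duplicate dose-responses uses CellTiter-Glo ATP luminescence as viability read-out.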

`COC1(C#N)CN(c2cc(Oc3ccc(-n4ncn(Cc5c(F)cccc5F)c4=O)cc3F)c(Cl)cn2)C1` [Example 231, 1-(5-chloro-4-(4-(4-(2,6-difluorobenzyl)-5-oxo-4,5-dihydro-1H-1,2,4-triazol-1-yl)-2-fluorophenoxy)pyridin-2-yl)-3-methoxyazetidine-3-carbonitrile] and `COC1(C#N)CN(c2cc(Oc3ccc(-n4ncn(Cc5c(F)cccc5F)c4=O)cc3F)c(C)cn2)C1` [Example 239, 1-(4-(4-(4-(2,6-difluorobenzyl)-5-oxo-4,5-dihydro-1H-1,2,4-triazol-1-yl)-2-fluorophenoxy)-5-methylpyridin-2-yl)-3-methoxyazetidine-3-carbonitrile] cannot be ordered by IC50: less than 100 nM for the first, less than 100 nM for the second.

`C[C@H]1[C@H](C#N)CN1c1cc(Oc2ccc(-n3ncn(Cc4c(F)cccc4F)c3=O)cc2F)c(F)cn1` [Example 232, (2S,3R)-1-(4-(4-(4-(2,6-difluorobenzyl)-5-oxo-4,5-dihydro-1H-1,2,4-triazol-1-yl)-2-fluorophenoxy)-5-fluoropyridin-2-yl)-2-methylazetidine-3-carbonitrile] and `C[C@H]1[C@H](C#N)CN1c1cc(Oc2ccc(-n3ncn(Cc4c(F)cccc4F)c3=O)cc2F)c(Cl)cn1` [Example 233, (2S,3R)-1-(5-chloro-4-(4-(4-(2,6-difluorobenzyl)-5-oxo-4,5-dihydro-1H-1,2,4-triazol-1-yl)-2-fluorophenoxy)pyridin-2-yl)-2-methylazetidine-3-carbonitrile] cannot be ordered by IC50: less than 100 nM for the first, less than 100 nM for the second.

First: CCOC1CN(c2ncnc(Oc3ccc(-n4ncn(Cc5c(F)cccc5F)c4=O)cc3)c2F)C1 [Example 234, 4-(2,6-difluorobenzyl)-2-(4-((6-(3-ethoxyazetidin-1-yl)-5-fluoropyrimidin-4-yl)oxy)phenyl)-2,4-dihydro-3H-1,2,4-triazol-3-one]
Second: CCOC1CN(c2nccc(Oc3ccc(-n4ncn(Cc5c(F)cccc5F)c4=O)cc3)c2C)C1 [Example 236, 4-(2,6-difluorobenzyl)-2-(4-((2-(3-ethoxyazetidin-1-yl)-3-methylpyridin-4-yl)oxy)phenyl)-2,4-dihydro-3H-1,2,4-triazol-3-one]
The IC50 of the first is higher: 100 to 1000 nM for the first, less than 100 nM for the second.

`O=c1n(Cc2c(F)cccc2F)cnn1-c1ccc(Oc2cc(N3CC4(COC4)C3)ncc2F)c(F)c1` [Example 237, 4-(2,6-difluorobenzyl)-2-(3-fluoro-4-((5-fluoro-2-(2-oxa-6-azaspiro[3.3]heptan-6-yl)pyridin-4-yl)oxy)phenyl)-2,4-dihydro-3H-1,2,4-triazol-3-one] and `C[C@H]1[C@@H](N(C)C)CN1c1cc(Oc2ccc(-n3ncn(Cc4c(F)cccc4F)c3=O)cc2F)c(F)cn1` [Example 241, 4-(2,6-difluorobenzyl)-2-(4-((2-((2S,3S)-3-(dimethylamino)-2-methylazetidin-1-yl)-5-fluoropyridin-4-yl)oxy)-3-fluorophenyl)-2,4-dihydro-3H-1,2,4-triazol-3-one] cannot be ordered by IC50: less than 100 nM for the first, less than 100 nM for the second.

`CC1(C#N)CN(c2nccc(Oc3ccc(-n4ncn(Cc5c(F)cccc5F)c4=O)cc3F)c2Cl)C1` [Example 238, 1-(3-chloro-4-(4-(4-(2,6-difluorobenzyl)-5-oxo-4,5-dihydro-1H-1,2,4-triazol-1-yl)-2-fluorophenoxy)pyridin-2-yl)-3-methylazetidine-3-carbonitrile] and `C[C@H]1C[C@@H](C#N)CN1c1cc(Oc2ccc(-n3ncn(Cc4c(F)cccc4F)c3=O)cc2F)c(Cl)cn1` [Example 240, (3R,5S)-1-(5-chloro-4-(4-(4-(2,6-difluorobenzyl)-5-oxo-4,5-dihydro-1H-1,2,4-triazol-1-yl)-2-fluorophenoxy)pyridin-2-yl)-5-methylpyrrolidine-3-carbonitrile] cannot be ordered by IC50: less than 100 nM for the first, less than 100 nM for the second.

`C[C@H]1[C@@H](C#N)CN1c1nccc(Oc2ccc(-n3ncn(Cc4c(F)cccc4F)c3=O)cc2)c1F` [Example 242, (2S,3S)-1-(4-(4-(4-(2,6-difluorobenzyl)-5-oxo-4,5-dihydro-1H-1,2,4-triazol-1-yl)phenoxy)-3-fluoropyridin-2-yl)-2-methylazetidine-3-carbonitrile] showed an IC50 of less than 100 nM.
